Test results as given in patent US9198902B2, “1,4-dihydropyridine-3,5-dicarboxylate derivatives and preparation and use thereof” (Xuanzhu Pharma Co., Ltd., priority 2011, dated 2015).

Assays:
SHRs = test: In vivo hypotensive activity in SHRs, DSI implant-type remote blood pressure measurement; design: species or system rats; conditions: male SHRs, 10 mg/kg po, monitored 24 hours
Procedure: The in vivo hypotensive activity assay was conducted according to DSI experimental procedure with reference to page 56 of WO 2009/056934 A1. The agents to be tested, lercanidipine, barnidipine, amlodipine, azelnidipine, efonidipine and manidipine, were accurately weighed. Each agent was dissolved in DMSO. To the resulting solution was added 50% of the corresponding volume of PEG400 so that the final concentration of each agent was 1 mg/ml, and the final concentration of DMSO was 3%. […] Each compound was dissolved in DMSO. […] The compound to be tested, Compound 15, was accurately weighed. This compound was dissolved in DMSO. […] The compound to be tested, Compound 16 (optical activity)+108.34° and Compound 17 (optical activity optical activity)+36.4°, were accurately weighed. […] The test for hypotensive effect: Male SHRs were subjected to an abdominal aorta implantation using an implant, and used in the test after 7-10 days of recovery. The administration was an intragastric administration. One hour before the administration, the measured blood pressure was used as the pre-administration basic blood pressure value. After the administration, SHRs, allowed free access to the diet, were continuously monitored with a DSI implant-type blood pressure remote measurement system for 24 hours.

[1] = molecular target: L-type calcium ion channels (Cavia porcellus, UniProt O35505); test: L-type calcium ion channel inhibition, whole cell patch-clamp (electrophysiological method); type: cell-based; conditions: left ventricle muscle cells of guinea pigs, room temperature
Source text: 2. Test for L- and T-Type Calcium Ion Channel Inhibitors
This experiment was assigned to HD Biosciences Corporation (Shanghai) and conducted with an electrophysiological method.
It was done with reference to the method as disclosed by Jung-Ha Lee, et. al., “Identification of T-Type α1H Ca^2+ Channels (Cav3.2) in Major Pelvic Ganglion Neurons”. J Neurophysiol 87:2844-2850, 2002.
Test samples were weighed accurately and diluted in a 3-fold stepwise dilution so that the final concentrations were as follows:
L-type test: Left ventricle muscle cells were separated from guinea pigs. The cells were used in the experiment in eight hours. The ionic current of a single cell was recorded by applying the whole cell patch-clamp technique at room temperature, wherein the clamp current was −80 mV, and the pulse interval was 10 s. The inward current (the activiation was started from 0 mV) is the L-type calcium current (ICa,L).
The electrode inner liquid (mM): CsCl 120, TEA-Cl 20, CaCl2 1, EGTA-CsOH 11, Hepes 10, Mg-ATP 5, pH7.3;
The electrode outer liquid (mM): NaCl 135, CsCl 5.4, CaCl2 1.8, MgCl2 1, Hepes 5, glucose 10, pH7.4.

Human Cav3.2 = Human Cav3.2 (Homo sapiens, UniProt O95180); test: T-type calcium ion channel inhibition, FLIPR method; type: cell-based; conditions: Human Cav3.2 in stable HEK-293 cells, FLIPR Calcium 4 No-Wash kit
Procedure: T-type tests for Compound 19 and Compound 20 were assigned to Chan Test Corporation, and conducted according to the FLIPR experimental procedure as follows.
It was done with reference to the method disclosed on page 48 of WO 2009/056934 A1.
Samples were weighed accurately and diluted in a 3-fold stepwise dilution so that the final concentrations were as follows: 100 μM, 30 μM, 10 μM, 3 μM, 1 μM, 0.3 μM, 0.1 μM, 0.03 μM, 0.01 μM, 0.003 μM.
T-type test: Human Cav3.2 was cloned in stable HEK-293 cells, and then the operation was conducted with FLIPR Calcium 4 No-Wash kit. The cell medium was removed. To an HEPES solution free of calcium ion was added 20 μL dye to dye for 30 minutes at a temperature of 37° C. This buffer free of calcium ion included NaCl, 137 mM; KCl, 0.5 mM; MgCl2 mM, 1 mM; HEPES, 10 mM; glucose, 10 mM. The pH value was adjusted to 7.4 with NaOH. After 30 minutes, the buffer was placed at room temperature for 30 minutes. Then 5 μL of compound to be tested, solvent or blank control were added. The compound was formulated with a buffer containing calcium ion, said buffer including KCl, 135 mM; CaCl2, 10.8 mM; MgCl2, 1 mM; HEPES, 10 mM; glucose, 10 mM. The collected fluorescence values were analyzed and the inhibition ratios were calculated.

[2] = system: SHRs (spontaneous hypertensive rats); test: In vivo hypotensive activity in SHRs, tail-pinch method; conditions: male SHRs, 10 mg/kg po; for Max ΔMAP (mmHg ± SEM): measured 1-24 h after administration
Procedure: The in vivo hypotensive activity assay was conducted according to the tail-pinch method with reference to Folia pharmacol. Japon. 97, 115-126 (1991).
The agents to be tested, lercanidipine, barnidipine, amlodipine, azelnidipine, efonidipine and manidipine, were accurately weighed respectively. Each agent was dissolved in DMSO. To the resulting solution was added 50% of the corresponding volume of PEG400 so that the final concentration of each agent was 1 mg/ml, and the final concentration of DMSO was 3%.
The compounds to be tested, Compound 18, Compound 21, Compound 22, Compound 23, and Compound 26, were accurately weighed respectively. Each compound was dissolved in DMSO. To the resulting solution was added 50% of the corresponding volume of PEG400 so that the final concentration of each compound was 1 mg/ml, and the final concentration of DMSO was 3%.
The compounds to be tested, Compound 19 and Compound 20, were accurately weighed respectively. Each compound was suspended in 0.5% MC so that the final concentration of each compound was 1 mg/ml.
The test for hypotensive effect: Male SHRs (spontaneous hypertensive rats) were randomly allocated into a control group and an administration group. The administration was an intragastric administration. One hour before the administration, the measured blood pressure was used as the pre-administration basic blood pressure value. After the administration, the contractive pressure, the heart rate and the mean arterial pressure of SHRs at six time points, i.e. 1, 2, 4, 6, 8 and 24 hours after the administration, were measured with a Softron BP-98A non-invasive blood pressure instrument respectively.

Chain of L-type calcium ion channels (O35505 whole entry): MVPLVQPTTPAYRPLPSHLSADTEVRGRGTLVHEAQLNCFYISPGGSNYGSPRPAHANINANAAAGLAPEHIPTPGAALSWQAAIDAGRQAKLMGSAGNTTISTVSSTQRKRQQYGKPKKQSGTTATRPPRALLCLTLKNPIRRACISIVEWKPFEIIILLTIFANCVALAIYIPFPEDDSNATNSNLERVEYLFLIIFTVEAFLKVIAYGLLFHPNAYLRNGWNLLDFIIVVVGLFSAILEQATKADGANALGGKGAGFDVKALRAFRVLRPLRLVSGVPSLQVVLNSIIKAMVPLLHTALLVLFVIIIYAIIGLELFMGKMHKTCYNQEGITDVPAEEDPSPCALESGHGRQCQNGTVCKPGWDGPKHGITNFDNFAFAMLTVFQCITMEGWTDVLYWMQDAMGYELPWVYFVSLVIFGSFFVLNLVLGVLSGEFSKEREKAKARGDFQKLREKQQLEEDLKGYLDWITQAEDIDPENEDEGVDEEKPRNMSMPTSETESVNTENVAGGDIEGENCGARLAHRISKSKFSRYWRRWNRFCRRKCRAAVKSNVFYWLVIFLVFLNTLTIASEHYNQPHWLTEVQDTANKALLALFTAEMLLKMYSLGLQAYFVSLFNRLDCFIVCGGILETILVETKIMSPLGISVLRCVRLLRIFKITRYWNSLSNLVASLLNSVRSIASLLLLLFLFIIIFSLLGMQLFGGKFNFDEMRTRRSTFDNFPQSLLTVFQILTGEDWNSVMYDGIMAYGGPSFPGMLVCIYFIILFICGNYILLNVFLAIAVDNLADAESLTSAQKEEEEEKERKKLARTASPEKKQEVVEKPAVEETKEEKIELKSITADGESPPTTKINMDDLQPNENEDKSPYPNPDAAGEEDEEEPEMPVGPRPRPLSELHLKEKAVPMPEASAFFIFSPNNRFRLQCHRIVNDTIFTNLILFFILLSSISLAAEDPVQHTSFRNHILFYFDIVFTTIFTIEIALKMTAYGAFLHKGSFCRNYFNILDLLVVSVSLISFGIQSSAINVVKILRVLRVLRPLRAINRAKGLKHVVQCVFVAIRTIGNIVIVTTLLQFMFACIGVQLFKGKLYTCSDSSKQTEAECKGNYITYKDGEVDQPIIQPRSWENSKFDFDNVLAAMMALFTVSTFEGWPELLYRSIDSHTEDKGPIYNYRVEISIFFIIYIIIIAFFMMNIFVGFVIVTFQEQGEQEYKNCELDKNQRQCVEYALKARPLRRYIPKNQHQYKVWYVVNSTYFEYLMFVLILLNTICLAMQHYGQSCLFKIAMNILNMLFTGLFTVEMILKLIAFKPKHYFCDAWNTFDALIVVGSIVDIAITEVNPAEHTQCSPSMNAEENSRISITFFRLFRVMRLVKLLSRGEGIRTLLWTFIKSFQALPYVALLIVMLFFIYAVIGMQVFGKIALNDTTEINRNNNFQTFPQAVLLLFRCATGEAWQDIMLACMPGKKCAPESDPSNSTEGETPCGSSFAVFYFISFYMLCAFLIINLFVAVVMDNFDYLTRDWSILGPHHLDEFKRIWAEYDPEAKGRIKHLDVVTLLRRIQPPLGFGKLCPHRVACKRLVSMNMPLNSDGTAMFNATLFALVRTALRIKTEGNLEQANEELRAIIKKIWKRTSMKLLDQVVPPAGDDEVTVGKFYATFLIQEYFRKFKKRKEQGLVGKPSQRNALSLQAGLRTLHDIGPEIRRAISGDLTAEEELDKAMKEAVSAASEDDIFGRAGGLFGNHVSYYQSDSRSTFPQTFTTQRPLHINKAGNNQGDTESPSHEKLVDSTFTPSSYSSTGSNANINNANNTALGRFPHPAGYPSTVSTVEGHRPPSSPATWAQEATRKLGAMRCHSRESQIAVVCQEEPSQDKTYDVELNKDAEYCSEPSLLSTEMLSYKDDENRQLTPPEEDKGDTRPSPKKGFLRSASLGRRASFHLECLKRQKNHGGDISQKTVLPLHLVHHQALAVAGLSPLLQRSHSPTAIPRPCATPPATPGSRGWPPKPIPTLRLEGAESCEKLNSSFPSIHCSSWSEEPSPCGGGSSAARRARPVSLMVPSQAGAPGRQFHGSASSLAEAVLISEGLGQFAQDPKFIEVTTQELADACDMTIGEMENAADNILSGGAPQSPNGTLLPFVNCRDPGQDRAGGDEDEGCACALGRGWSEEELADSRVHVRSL
Chain of Human Cav3.2 (O95180 whole entry): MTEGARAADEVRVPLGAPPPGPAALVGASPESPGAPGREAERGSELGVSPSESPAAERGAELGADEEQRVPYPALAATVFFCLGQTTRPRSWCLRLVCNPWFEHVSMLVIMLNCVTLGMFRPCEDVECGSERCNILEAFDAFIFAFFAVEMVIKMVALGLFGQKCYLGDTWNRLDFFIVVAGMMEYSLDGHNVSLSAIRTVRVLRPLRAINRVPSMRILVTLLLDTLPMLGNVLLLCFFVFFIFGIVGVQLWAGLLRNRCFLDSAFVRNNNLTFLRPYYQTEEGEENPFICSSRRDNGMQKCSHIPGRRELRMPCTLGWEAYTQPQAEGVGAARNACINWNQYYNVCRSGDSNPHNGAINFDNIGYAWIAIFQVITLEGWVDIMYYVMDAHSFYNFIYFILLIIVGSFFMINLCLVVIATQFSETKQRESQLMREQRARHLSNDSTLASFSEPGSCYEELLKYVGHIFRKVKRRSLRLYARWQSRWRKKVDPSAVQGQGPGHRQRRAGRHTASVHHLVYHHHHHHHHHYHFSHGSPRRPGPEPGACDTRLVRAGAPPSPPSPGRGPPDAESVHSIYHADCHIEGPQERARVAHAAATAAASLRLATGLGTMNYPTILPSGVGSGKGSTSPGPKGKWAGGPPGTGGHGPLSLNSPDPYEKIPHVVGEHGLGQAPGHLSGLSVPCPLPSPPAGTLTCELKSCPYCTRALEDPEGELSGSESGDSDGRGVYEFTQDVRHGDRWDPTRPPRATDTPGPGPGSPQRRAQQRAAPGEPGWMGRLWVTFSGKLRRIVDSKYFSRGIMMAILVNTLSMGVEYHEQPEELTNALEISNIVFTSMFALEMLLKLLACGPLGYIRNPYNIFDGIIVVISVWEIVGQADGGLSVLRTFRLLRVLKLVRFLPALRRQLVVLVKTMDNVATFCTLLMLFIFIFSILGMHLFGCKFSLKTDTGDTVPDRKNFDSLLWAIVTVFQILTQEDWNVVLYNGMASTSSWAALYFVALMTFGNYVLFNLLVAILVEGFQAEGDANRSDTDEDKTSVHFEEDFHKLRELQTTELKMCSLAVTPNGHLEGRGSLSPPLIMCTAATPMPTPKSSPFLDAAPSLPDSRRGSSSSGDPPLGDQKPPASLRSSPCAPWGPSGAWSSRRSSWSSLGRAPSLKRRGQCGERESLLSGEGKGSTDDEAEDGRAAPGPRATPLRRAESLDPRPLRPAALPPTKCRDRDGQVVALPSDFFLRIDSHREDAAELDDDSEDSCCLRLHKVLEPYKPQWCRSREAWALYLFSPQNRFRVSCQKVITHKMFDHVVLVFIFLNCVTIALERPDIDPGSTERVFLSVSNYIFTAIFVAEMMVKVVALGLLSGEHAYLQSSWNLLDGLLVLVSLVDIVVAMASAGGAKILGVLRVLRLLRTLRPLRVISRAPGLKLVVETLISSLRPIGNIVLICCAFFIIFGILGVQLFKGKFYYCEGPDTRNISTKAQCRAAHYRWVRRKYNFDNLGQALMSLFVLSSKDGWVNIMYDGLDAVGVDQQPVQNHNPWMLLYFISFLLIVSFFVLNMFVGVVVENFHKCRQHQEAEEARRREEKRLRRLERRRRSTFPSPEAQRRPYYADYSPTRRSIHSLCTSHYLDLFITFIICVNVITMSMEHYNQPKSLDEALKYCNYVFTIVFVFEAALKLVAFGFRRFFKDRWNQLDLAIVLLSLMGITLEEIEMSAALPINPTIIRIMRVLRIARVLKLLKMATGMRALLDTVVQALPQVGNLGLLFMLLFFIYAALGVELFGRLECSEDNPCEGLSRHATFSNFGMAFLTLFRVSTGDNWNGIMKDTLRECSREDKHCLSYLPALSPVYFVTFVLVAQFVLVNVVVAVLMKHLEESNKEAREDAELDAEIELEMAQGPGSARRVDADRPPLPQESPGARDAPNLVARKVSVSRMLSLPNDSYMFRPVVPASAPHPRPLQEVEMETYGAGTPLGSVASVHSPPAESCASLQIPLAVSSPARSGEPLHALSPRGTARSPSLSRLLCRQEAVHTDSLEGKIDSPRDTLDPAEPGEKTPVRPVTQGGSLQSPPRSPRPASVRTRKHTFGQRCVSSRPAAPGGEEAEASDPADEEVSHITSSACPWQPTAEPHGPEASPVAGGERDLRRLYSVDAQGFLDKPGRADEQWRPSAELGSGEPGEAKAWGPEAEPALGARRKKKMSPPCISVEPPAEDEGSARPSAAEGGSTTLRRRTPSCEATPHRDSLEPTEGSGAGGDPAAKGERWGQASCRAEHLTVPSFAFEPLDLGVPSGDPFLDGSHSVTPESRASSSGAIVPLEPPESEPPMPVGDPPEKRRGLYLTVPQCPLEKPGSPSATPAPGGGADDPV

| IC50 [1] [µM] | IC50 (Human Cav3.2) [µM] | SMILES | Max ΔMAP (mmHg ± SEM) (SHRs) [mmHg] | ΔMAP > 20 (mmHg) Duration time of action (SHRs) [h] | ΔMAP > 20 (mmHg) Duration time of action [2] [h] | Max ΔMAP (mmHg ± SEM) [2] [mmHg] |
| --- | --- | --- | --- | --- | --- | --- |
| – | – | COC(=O)C1=C(C)NC(C)=C(C(=O)OC2(C)CCN(Cc3ccccc3)C2)C1c1cccc([N+](=O)[O-])c1 (stereo not shown) [Compound 1, 3-(1-benzyl-3-methylpyrrolidin-3-yl) 5-methyl 2,6-dimethyl-4-(3-nitrophenyl)-1,4-dihydropyridine-3,5-dicarboxylate] | 47 ± 7 | 6 | – | – |
| – | – | COC(=O)C1=C(C)NC(C)=C(C(=O)OC2(C)CCN(CCC(c3ccccc3)c3ccccc3)C2)C1c1cccc([N+](=O)[O-])c1 (stereo not shown) [Compound 2, 3-[1-(3,3-diphenylpropyl)-3-methylpyrrolidin-3-yl] 5-methyl 2,6-dimethyl-4-(3-nitrophenyl)-1,4-dihydropyridine-3,5-dicarboxylate] | 53 ± 7 | 16 | – | – |
| 0.59 | – | COC(=O)C1=C(C)NC(C)=C(C(=O)OC2(C)CCN(CCC(c3ccccc3)c3ccccc3)C2)[C@@H]1c1cccc([N+](=O)[O-])c1 (stereo partly drawn) [Compound 14, (4R)-3-[1-(3,3-diphenylpropyl)-3-methylpyrrolidin-3-yl] 5-methyl 2,6-dimethyl-4-(3-nitrophenyl)-1,4-dihydropyridine-3,5-dicarboxylate] | – | – | – | – |
| 1.28 | – | COC(=O)C1=C(C)NC(C)=C(C(=O)OC2(C)CCN(CCC(c3ccccc3)c3ccccc3)C2)[C@H]1c1cccc([N+](=O)[O-])c1 (stereo partly drawn) [Compound 15, (4S)-3-[1-(3,3-diphenylpropyl)-3-methylpyrrolidin-3-yl] 5-methyl 2,6-dimethyl-4-(3-nitrophenyl)-1,4-dihydropyridine-3,5-dicarboxylate] | 56 ± 1 | 14 | – | – |
| 0.93 | 9.41 | COC(=O)C1=C(C)NC(C)=C(C(=O)O[C@]2(C)CCN(CCC(c3ccccc3)c3ccccc3)C2)[C@H]1c1cccc([N+](=O)[O-])c1 [Compound 17, (S)-3-[(R)-1-(3,3-diphenylpropyl)-3-methylpyrrolidin-3-yl] 5-methyl 2,6-dimethyl-4-(3-nitrophenyl)-1,4-dihydropyridine-3,5-dicarboxylate] | 57 ± 5 | 16 | – | – |
| – | – | COC(=O)C1=C(C)NC(C)=C(C(=O)OC2(C)CCN(CC(c3ccccc3)c3ccccc3)C2)[C@H]1c1cccc([N+](=O)[O-])c1 (stereo partly drawn) [Compound 18, (4S)-3-[1-(2,2-diphenylethyl)-3-methylpyrrolidin-3-yl] 5-methyl 2,6-dimethyl-4-(3-nitrophenyl)-1,4-dihydropyridine-3,5-dicarboxylate] | – | – | 24 | 69 ± 4 |
| – | 75.4 | COC(=O)C1=C(C)NC(C)=C(C(=O)O[C@]2(C)CCN(CC(c3ccccc3)c3ccccc3)C2)[C@H]1c1cccc([N+](=O)[O-])c1 [Compound 19, (S)-3-[(R)-1-(2,2-diphenylethyl)-3-methylpyrrolidin-3-yl] 5-methyl 2,6-dimethyl-4-(3-nitrophenyl)-1,4-dihydropyridine-3,5-dicarboxylate] | – | – | 24 | 72 ± 8 |
| – | 66.9 | COC(=O)C1=C(C)NC(C)=C(C(=O)O[C@@]2(C)CCN(CC(c3ccccc3)c3ccccc3)C2)[C@H]1c1cccc([N+](=O)[O-])c1 [Compound 20, (S)-3-[(S)-1-(2,2-diphenylethyl)-3-methylpyrrolidin-3-yl] 5-methyl 2,6-dimethyl-4-(3-nitrophenyl)-1,4-dihydropyridine-3,5-dicarboxylate] | – | – | 24 | 80 ± 14 |
| – | – | COC(=O)C1=C(C)NC(C)=C(C(=O)OC2(C)CCN(CCCc3ccccc3)C2)[C@H]1c1cccc([N+](=O)[O-])c1 (stereo partly drawn) [Compound 21, (4S)-3-[3-methyl-1-(3-phenylpropyl)pyrrolidin-3-yl] 5-methyl 2,6-dimethyl-4-(3-nitrophenyl)-1,4-dihydropyridine-3,5-dicarboxylate] | – | – | 24 | 28 ± 12 |
| – | – | COC(=O)C1=C(C)NC(C)=C(C(=O)OC2(C)CCN(CCc3ccccc3)C2)[C@H]1c1cccc([N+](=O)[O-])c1 (stereo partly drawn) [Compound 22, (4S)-3-(3-methyl-1-phenylethylpyrrolidin-3-yl) 5-methyl 2,6-dimethyl-4-(3-nitrophenyl)-1,4-dihydropyridine-3,5-dicarboxylate] | – | – | 24 | 43 ± 7 |
| – | – | COC(=O)C1=C(C)NC(C)=C(C(=O)OC2(C)CCN(Cc3cc(F)cc(F)c3)C2)[C@H]1c1cccc([N+](=O)[O-])c1 (stereo partly drawn) [Compound 23, (4S)-3-[1-(3,5-difluorobenzyl)-3-methylpyrrolidin-3-yl]5-methyl 2,6-dimethyl-4-(3-nitrophenyl)-1,4-dihydropyridine-3,5-dicarboxylate] | – | – | 24 | 60 ± 12 |
| – | – | COC(=O)C1=C(C)NC(C)=C(C(=O)OC2(C)CCN(C(c3ccccc3)c3ccccc3)C2)[C@H]1c1cccc([N+](=O)[O-])c1 (stereo partly drawn) [Compound 26, (4S)-3-[1-diphenylmethyl-3-methylpyrrolidin-3-yl]5-methyl 2,6-dimethyl-4-(3-nitrophenyl)-1,4-dihydropyridine-3,5-dicarboxylate] | – | – | 24 | 55 ± 13 |
| 1.39 | – | CC1=C(C(=O)OC(C)C)C(c2cccc([N+](=O)[O-])c2)C(C(=O)OC2CN(C(c3ccccc3)c3ccccc3)C2)=C(N)N1 (stereo not shown) [azelnidipine, reference compound] | 40 ± 5 | 11 | 24 | 79 ± 13 |
| – | – | CC1=C(C(=O)OCCN(Cc2ccccc2)c2ccccc2)C(c2cccc([N+](=O)[O-])c2)C(P2(=O)OCC(C)(C)CO2)=C(C)N1 (stereo not shown) [efonidipine, reference compound] | – | – | 10 | 69 ± 5 |
| – | – | COC(=O)C1=C(C)NC(C)=C(C(=O)OCCN2CCN(C(c3ccccc3)c3ccccc3)CC2)C1c1cccc([N+](=O)[O-])c1 (stereo not shown) [manidipine, reference compound] | – | – | 23 | 74 ± 5 |
